The values that follow come from patent US5639778A, “Indoletetralins having dopaminergic activity” (Pharmacia & Upjohn Company, priority 1995, dated 1997).

Like-named read-outs stand apart in the source and are kept apart here.

Assay [1] addresses T1, serotonin 5-HT1A receptor (Rattus norvegicus, UniProt P19327).
T1 construct: from tissue
T1 sequence (P19327 1-422): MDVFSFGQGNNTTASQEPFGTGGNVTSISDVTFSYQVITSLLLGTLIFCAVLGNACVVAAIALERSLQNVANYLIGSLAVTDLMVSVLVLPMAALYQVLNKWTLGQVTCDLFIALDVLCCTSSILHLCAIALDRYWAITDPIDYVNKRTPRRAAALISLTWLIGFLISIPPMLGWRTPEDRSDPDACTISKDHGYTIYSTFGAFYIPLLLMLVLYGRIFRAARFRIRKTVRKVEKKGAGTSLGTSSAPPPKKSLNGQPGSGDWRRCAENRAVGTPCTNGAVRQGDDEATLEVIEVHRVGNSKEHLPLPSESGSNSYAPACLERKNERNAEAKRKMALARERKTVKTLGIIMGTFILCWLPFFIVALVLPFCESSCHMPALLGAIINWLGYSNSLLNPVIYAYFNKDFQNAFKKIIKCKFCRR
In words: in vitro affinity for brain serotonin 5-HT1A receptor sites, 8-OH-DPAT. The conditions noted are these: non-pretreated, read-out: In vitro binding Ki 5HT1A. The source says: (§1) pretreated rats. Also shown are the in vitro affinities for brain
(§2) dopamine (D2, Spiperone) and serotonin (5-HT1A, 8-OH-DPAT)
(§3) receptor sites in non-pretreated rats.

Assay [2] deals with DOPA accumulation in the striatum (DA synthesis rate). In words: DOPA accumulation in striatum of reserpine-pretreated rats. The format is in vivo, rat. The conditions noted are these: for ED50: Rattus norvegicus, sc, 0.5 h, read-out: DOPA ED50 Stri. The method, then: (§4) Effects on DOPA and 5-HTP accumulation in reserpine -
(§5) The animals were pretreated with reserpine (5 mg/kg, s.c.) 18 hours before the experiment. Test drugs were administered and immediately thereafter the motron activity was measured in photocell motility boxes. The rats were injected with the decarboxylase inhibitor NSD 1015 (100 mg/kg, s.c.) and killed 30 minutes later. The accumulation of DOPA in the striatum, limbic and […] and that of 5-HTP in the limbic forebrain was taken as a measure of the DA and 5-HT synthesis rates, respectively. The accumulation of DOPA in the cortex area was taken as a measure of NA synthesis rate. […] The same theory is valid for 5-HT receptor agonists and antagonists. Dose-response curves were constructed for each compound (4-5 dose levels, n=4) and the half-maximal decrease (ED50) was calculated.
(§6) P=partial decrease; maximal decrease was not reached at the highest dose (shown in brackets). The % decrease from control is also shown. NT=not tested. [drawing 4]

In assay [3] the test system is 5-HTP accumulation in the limbic forebrain (5-HT synthesis rate). In words: 5-HTP accumulation in limbic forebrain of reserpine-pretreated rats. It counts as in vivo, rat. The method, then:
as §4, §5, §6

The target of assay [4] is T2, dopamine D2 receptor (D2CHO cells) (Homo sapiens, UniProt P14416).
T2 construct: expressed in transfected cells; host or cells: CHO cells (D2CHO)
T2 sequence (P14416 whole entry): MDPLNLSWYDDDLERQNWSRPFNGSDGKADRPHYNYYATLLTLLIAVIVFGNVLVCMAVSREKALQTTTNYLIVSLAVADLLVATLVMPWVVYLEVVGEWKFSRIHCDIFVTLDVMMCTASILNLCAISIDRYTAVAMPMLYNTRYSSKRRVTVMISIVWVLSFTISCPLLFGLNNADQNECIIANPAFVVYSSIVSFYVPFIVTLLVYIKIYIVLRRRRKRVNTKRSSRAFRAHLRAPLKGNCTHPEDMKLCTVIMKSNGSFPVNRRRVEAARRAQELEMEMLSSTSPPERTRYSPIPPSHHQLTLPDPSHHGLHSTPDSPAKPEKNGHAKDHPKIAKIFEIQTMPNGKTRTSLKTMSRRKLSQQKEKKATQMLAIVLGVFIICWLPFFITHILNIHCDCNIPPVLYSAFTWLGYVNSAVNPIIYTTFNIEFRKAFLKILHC
In words: binding experiments using D2CHO cells and Raclopride as the labeled ligand. An excerpt: *Data from binding experiments using D2CHO cells and Raclopride as the […]

Assay [5] relates to DOPA accumulation in the cortex (NA synthesis rate). In words: DOPA accumulation in cortex of reserpine-pretreated rats. It counts as in vivo, rat. The conditions noted are these: for DOPA ED50 Cortex. (I/P symbol): s.c., number in brackets = highest dose, μmol/kg; for ED50: Rattus norvegicus, sc, 0.5 h, read-out: DOPA ED50 Cortex. (I/P symbol). The method, then:
as §4, §5, §6

The next assay concerns the target T3, dopamine D2 receptor (Rattus norvegicus, UniProt P61169).
T3 construct: from tissue
In words: in vitro affinity for brain dopamine D2 receptor sites, Spiperone. The format is binding. The conditions noted are these: non-pretreated.
From the text: as §1, §2, §3

[6] abbreviates: D2CHO cells, Raclopride as labeled ligand, read-out: In vitro binding Ki D2 (marked *).
The mark [7] stands for this setting: Rattus norvegicus, sc, 0.5 h, read-out: 5-HTP ED50 Limbic (I/P symbol).
Setting [8] is: read-out: In vitro binding Ki D2-spip.

T3 sequence (P61169 whole entry): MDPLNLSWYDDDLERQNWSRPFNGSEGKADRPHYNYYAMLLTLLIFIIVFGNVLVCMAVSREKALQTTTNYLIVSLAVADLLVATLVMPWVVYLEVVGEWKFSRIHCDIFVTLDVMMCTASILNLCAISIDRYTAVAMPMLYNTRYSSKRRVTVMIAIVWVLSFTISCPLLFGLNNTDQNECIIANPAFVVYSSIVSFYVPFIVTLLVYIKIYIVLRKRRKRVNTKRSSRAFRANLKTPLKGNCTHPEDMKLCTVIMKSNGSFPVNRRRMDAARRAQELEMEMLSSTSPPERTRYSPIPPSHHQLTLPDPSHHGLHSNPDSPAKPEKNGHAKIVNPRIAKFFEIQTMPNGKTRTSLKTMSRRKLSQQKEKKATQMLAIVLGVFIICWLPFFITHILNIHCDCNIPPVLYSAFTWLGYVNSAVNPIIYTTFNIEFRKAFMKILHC

The term Ki denotes the dissociation constant of the complex between target and ligand, obtained from inhibition or displacement. Take `CCCN(CCC)[C@H]1CCc2c(ccc3[nH]ccc23)[C@H]1C` (relative stereo) [Example 15, cis-(6-Methyl-6,7,8,9-tetrahydro-3H-benzo[e]-indol-7-yl)-dipropylamine]: the figures for the Ki in assay [1] and in assay [4] (setting [6]) were 124 nM and 164 nM, respectively. The “DOPA Stri. % decrease from control” value in assay [2] (highest dose 50 μmol/kg s.c.) was 35%. Besides, the “5-HTP Limbic % decrease from control” value in assay [3] (highest dose 50 μmol/kg s.c.) is listed as 52%. Moreover, the “DOPA Cortex. % decrease from control” value in assay [5] (highest dose 50 μmol/kg s.c.) was 88%.

On to `CCCN(CCC)[C@H]1CCc2c(ccc3[nH]cc(C=O)c23)[C@H]1C` (relative stereo) [Example 16, cis-7-Dipropylamino-6-methyl-6,7,8,9-tetrahydro-3H-benzo[e]-indole-1-carbaldehyde], for which the “DOPA Stri. % decrease from control” value in assay [2] (highest dose 50 μmol/kg s.c.) is reported as 36%. Besides, the ED50 in assay [3] (setting [7]) was 50 µmol/kg. Moreover, the Ki in assay [4] (setting [6]) is 924 nM. The “DOPA ED50 Cortex. (I/P symbol)” value in assay [5] is given as “I(50)”.

On to `CCCN(CCC)C1CCc2c(ccc3[nH]ccc23)C1` (single isomer, unassigned; (+)) [7A(+), (+)-Dipropyl-(6,7,8,9-tetrahydro-benzo[e]indol-7-yl)-amine, reference compound], for which, in assay [2], the ED50 stood at 0.12 µmol/kg. The “5-HTP Limbic % decrease from control” value in assay [3] (highest dose 12.5 μmol/kg s.c.) was determined as 80%. In addition, the inhibitory constant (Ki) at dopamine D2 receptor (In vitro binding Ki D2-spip.) is 35 nM. For the same molecule, in assay [5] (highest dose 12.5 μmol/kg s.c.), the “DOPA Cortex. % decrease from control” value is on record as 67%.

Take `CCCN(CCC)C1CCc2c(ccc3[nH]cc(C=O)c23)C1` (single isomer, unassigned; (+)) [8(+), (+)-7-Dipropylamino-6,7,8,9-tetrahydro-3H-benzo[e]indole-1-carbaldehyde]: the “DOPA Stri. % decrease from control” value in assay [2] (highest dose 0.2 μmol/kg s.c.) is listed as 60%. Further, the ED50 in assay [3] (setting [7]) and in assay [5] was 0.2 µmol/kg throughout.

On to `CCCN(CCC)C1CCc2c(ccc3[nH]ccc23)C1` (single isomer, unassigned; (-)) [7A(-), (-)-Dipropyl-(6,7,8,9-tetrahydro-benzo[e]indol-7-yl)-amine, reference compound], for which the inhibitory constant (Ki) in assay [1] amounted to 1450 nM; at dopamine D2 receptor (setting [8]), 257 nM. Also, in assay [2] (highest dose 25 μmol/kg s.c.), the “DOPA Stri. % decrease from control” value is on record as 31%. Moreover, the “5-HTP Limbic % decrease from control” value in assay [3] (highest dose 25 μmol/kg s.c.) is reported as 68%. Besides, the “DOPA Cortex. % decrease from control” value in assay [5] (highest dose 25 μmol/kg s.c.) was 73%.

As for `CCCN(CCC)C1CCc2c(ccc3c2NC(=O)C3=O)C1` (stereo not drawn) [Example 1, 7-Di-n-propylamino-6,7,8,9-tetrahydro-1H-benzo[g]indole-2,3-dione], the figures for the Ki in assay [1] and in assay [4] (setting [6]) were 9930 nM and 3520 nM, respectively. The “DOPA Stri. % decrease from control” value in assay [2] (highest dose 50 μmol/kg s.c.) is reported as 78%. Further, the highest dose tested (ED50 not reached) in assay [3] (Rattus norvegicus, sc, 0.5 h, s.c., number in brackets = highest dose, μmol/kg, read-out: 5-HTP ED50 Limbic (I/P symbol)) came to 50 µmol/kg.

`CCCN(CCC)C1CCc2c(ccc3cc[nH]c23)C1` (stereo not drawn) [Example 2, Di-n-propyl-(6,7,8,9-tetrahydro-1H-benzo[g]indol-7yl)amine]: the results for the inhibition constant (Ki) (in assay [1]; on dopamine D2 receptor (setting [8])) were 1120 nM and 320 nM, respectively. For the same molecule, the “DOPA Stri. % decrease from control” value in assay [2] (highest dose 50 μmol/kg s.c.) is recorded as 48%. Also, the “5-HTP Limbic % decrease from control” value in assay [3] (highest dose 50 μmol/kg s.c.) turned out to be 61%.

Take `CCCN(CCC)C1CCc2c(ccc3c2NC(=O)C3)C1` (stereo not drawn) [Example 4, 7-Di-n-propylamino-1,3,6,7,8,9-hexahydro-1H-benzo[g]indole-2-one]: the Ki in assay [1] was 25300 nM; at dopamine D2 receptor (setting [8]) it was 15900 nM. In addition, in assay [3] (Rattus norvegicus, sc, 0.5 h, s.c., half-maximal decrease, reserpine-pretreated rats, read-out: 5-HTP ED50 Limbic), the ED50 came out at 5.8 µmol/kg.

For `CCCN(CCC)C1COc2c(ccc3cc[nH]c23)C1` (stereo not drawn) [Example 5, Di-n-propyl-(1,6,7,8-tetrahydro-9-oxa-1-azacyclopenta[a]naphthylenee-7-yl)amine], the results for the Ki (in assay [1]; on dopamine D2 receptor (setting [8])) were 178 nM and 270 nM, respectively. Besides, the “DOPA Stri. % decrease from control” value in assay [2] (highest dose 3.1 μmol/kg s.c.) was 26%. The “5-HTP Limbic % decrease from control” value in assay [3] (highest dose 50 μmol/kg s.c.) is listed as 62%. For the same molecule, the “DOPA ED50 Cortex. (I/P symbol)” value in assay [5] is listed as “I(50)”.

Turning to `CCCN(CCC)C1CCc2cc3[nH]ccc3cc2C1` (stereo not drawn) [Example 7, Di-n-propyl-(5,6,7,8-tetrahydro-1H-benzo[f]indol-6-yl)amine], the Ki was 340 nM in assay [1] and 4200 nM on dopamine D2 receptor (setting [8]). Further, the “DOPA Stri. % decrease from control” value in assay [2] (highest dose 50 μmol/kg s.c.) was determined as 48%. Moreover, the ED50 in assay [3] (setting [7]) is 50 µmol/kg.

As for `CCCN(CCC)C1CCc2c(ccc3[nH]ccc23)C1` (stereo not drawn) [Example 7A, Di-n-propyl-(6,7,8,9-tetrahydro-3H-benzo[e]indol-7-yl)amine, reference compound], the Ki came out at 500 nM in assay [1] and 50 nM at dopamine D2 receptor (In vitro binding Ki D2-spip.). Also, the ED50 in assay [2] came out at 0.3 µmol/kg; in assay [5], 12.5 µmol/kg. The “5-HTP Limbic % decrease from control” value in assay [3] (highest dose 3.1 μmol/kg s.c.) came to 72%.

`CCCN(CCC)C1CCc2c(ccc3[nH]cc(C=O)c23)C1` (stereo not drawn) [Example 8, 7-Di-n-propylamino-6,7,8,9-tetrahydro-3H-benzo [e]indole-1-carbaldehyde]: the results for the Ki (in assay [1]; at dopamine D2 receptor (In vitro binding Ki D2-spip.)) were 2600 nM and 16 nM, respectively. For the same molecule, the ED50 in assay [2] was 0.015 µmol/kg; in assay [3] (setting [7]), 50 µmol/kg. Also, in assay [5] (highest dose 0.2 μmol/kg s.c.), the “DOPA Cortex. % decrease from control” value turned out to be 57%.

Consider `CCCN(CCC)C1CCc2cc3[nH]cc(C=O)c3cc2C1` (stereo not drawn) [Example 9, 6-Di-n-propylamino-5,6,7,8-tetrahydro-1H-benzo [f]indole-3-carbaldehyde], for which, in assay [2] (highest dose 12.5 μmol/kg s.c.), the “DOPA Stri. % decrease from control” value is reported as 37%. The ED50 in assay [3] (setting [7]) was determined as 12.5 µmol/kg. In assay [4] (setting [6]), the Ki is 278 nM. Also, in assay [5] (highest dose 12.5 μmol/kg s.c.), the “DOPA Cortex. % decrease from control” value worked out at 85%.

Regarding `CCCN(CCC)C1CCc2c(ccc3[nH]cc(C#N)c23)C1` (stereo not drawn) [Example 10, 7-Di-n-propylamino-6,7,8,9-tetrahydro-3H-benzo[e]indole-1-carbonitrile], the ED50 in assay [2] stood at 0.004 µmol/kg; in assay [3] (setting [7]), 3.1 µmol/kg. Moreover, in assay [4], the inhibition constant (Ki) turned out to be 10.1 nM. Further, the “DOPA Cortex. % decrease from control” value in assay [5] (highest dose 3.1 μmol/kg s.c.) is listed as 79%.

On to `CCCN(CCC)C1CCc2c(ccc3ccoc23)C1` (stereo not drawn) [Example 17, Di-n-propyl-(6,7,8,9-tetrahydronaphtho[1,2-b]furan-7-yl)-amine], for which the ED50 in assay [2] came out at 1 µmol/kg; in assay [3] (setting [7]), 33.3 µmol/kg. Also, in assay [4], the affinity, expressed as Ki, was 205 nM. For the same molecule, the “DOPA Cortex. % decrease from control” value in assay [5] (highest dose 33.3 μmol/kg s.c.) worked out at 79%.
